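Briefly, cells in 96-well plates were exposed to five compound concentrations for 48 h, and endpoints were estimated by linear interpolation. TGI: total growth inhibition.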
Columns and labels:
Assay in all cases: NCI-60 cell line screen, 48 h
HT29 colon = test system: HT29 colon
HOP-62 NSCLC = test system: HOP-62 NSCLC
HCT-116 colon = test system: HCT-116 colon
NCI-H23 lung = test system: NCI-H23 lung
MDA-MB-435 = test system: MDA-MB-435
SR leukemia = test system: SR leukemia
RXF 393 renal = test system: RXF 393 renal
SNB-75 CNS = test system: SNB-75 CNS
SN12C renal = test system: SN12C renal
T-47D breast = test system: T-47D breast
UACC-62 melanoma = test system: UACC-62 melanoma
SK-MEL-28 melanoma = test system: SK-MEL-28 melanoma
K-562 leukemia = test system: K-562 leukemia
SF-295 CNS = test system: SF-295 CNS
NCI-H460 lung = test system: NCI-H460 lung
SNB-19 CNS = test system: SNB-19 CNS
MDA-N = test system: MDA-N
ACHN renal = test system: ACHN renal
OVCAR-5 ovarian = test system: OVCAR-5 ovarian
HOP-92 NSCLC = test system: HOP-92 NSCLC
786-0 renal = test system: 786-0 renal
SK-OV-3 ovarian = test system: SK-OV-3 ovarian
SF-539 CNS = test system: SF-539 CNS
SF-268 CNS = test system: SF-268 CNS
MDA-MB-231 breast = test system: MDA-MB-231 breast
MALME-3M melanoma = test system: MALME-3M melanoma
A549 NSCLC = test system: A549 NSCLC
SW-620 colon = test system: SW-620 colon
KM12 colon = test system: KM12 colon
BT-549 breast = test system: BT-549 breast
UACC-257 melanoma = test system: UACC-257 melanoma
EKVX NSCLC = test system: EKVX NSCLC
TK-10 renal = test system: TK-10 renal
CCRF-CEM leukemia = test system: CCRF-CEM leukemia
U251 CNS = test system: U251 CNS
OVCAR-3 ovarian = test system: OVCAR-3 ovarian
HCT-15 colon = test system: HCT-15 colon
M14 melanoma = test system: M14 melanoma
PC-3 prostate = test system: PC-3 prostate
HCC-2998 colon = test system: HCC-2998 colon
MCF7 breast = test system: MCF7 breast
NCI-H226 lung = test system: NCI-H226 lung
DU-145 prostate = test system: DU-145 prostate
MOLT-4 leukemia = test system: MOLT-4 leukemia
OVCAR-4 ovarian = test system: OVCAR-4 ovarian
HL-60(TB) leukemia = test system: HL-60(TB) leukemia
OVCAR-8 ovarian = test system: OVCAR-8 ovarian
SK-MEL-5 melanoma = test system: SK-MEL-5 melanoma
RPMI-8226 leukemia = test system: RPMI-8226 leukemia
COLO 205 colon = test system: COLO 205 colon
NCI/ADR-RES ovarian = test system: NCI/ADR-RES ovarian
IGROV1 ovarian = test system: IGROV1 ovarian
NCI-H522 lung = test system: NCI-H522 lung
HS 578T breast = test system: HS 578T breast
CAKI-1 renal = test system: CAKI-1 renal
UO-31 renal = test system: UO-31 renal
LOX IMVI melanoma = test system: LOX IMVI melanoma

O=C(CN=C(CN(c1ccccc1)c1ccccc1)Oc1c(Cl)cc(Cl)cc1Cl)n1cnc2ccccc21
TGI (HT29 colon): > 100 µM | TGI (HOP-62 NSCLC): > 100 µM | TGI (HCT-116 colon): > 100 µM | TGI (NCI-H23 lung): > 100 µM | TGI (MDA-MB-435): > 100 µM | TGI (SR leukemia): > 100 µM | TGI (RXF 393 renal): 25.6 µM | TGI (SNB-75 CNS): > 100 µM | TGI (SN12C renal): > 100 µM | TGI (T-47D breast): > 100 µM | TGI (UACC-62 melanoma): > 100 µM | TGI (SK-MEL-28 melanoma): > 100 µM | TGI (K-562 leukemia): > 100 µM | TGI (SF-295 CNS): > 100 µM | TGI (NCI-H460 lung): > 100 µM | TGI (SNB-19 CNS): > 100 µM | TGI (MDA-N): > 100 µM | TGI (ACHN renal): > 100 µM | TGI (OVCAR-5 ovarian): > 100 µM | TGI (HOP-92 NSCLC): > 100 µM | TGI (786-0 renal): > 100 µM | TGI (SK-OV-3 ovarian): > 100 µM | TGI (SF-539 CNS): > 100 µM | TGI (SF-268 CNS): > 100 µM | TGI (MDA-MB-231 breast): > 100 µM | TGI (MALME-3M melanoma): > 100 µM | TGI (A549 NSCLC): > 100 µM | TGI (SW-620 colon): > 100 µM | TGI (KM12 colon): > 100 µM | TGI (BT-549 breast): > 100 µM | TGI (UACC-257 melanoma): > 100 µM | TGI (EKVX NSCLC): > 100 µM | TGI (TK-10 renal): > 100 µM | TGI (CCRF-CEM leukemia): > 100 µM | TGI (U251 CNS): > 100 µM | TGI (OVCAR-3 ovarian): > 100 µM | TGI (HCT-15 colon): > 100 µM | TGI (M14 melanoma): > 100 µM | TGI (PC-3 prostate): > 100 µM | TGI (HCC-2998 colon): > 100 µM | TGI (MCF7 breast): > 100 µM | TGI (NCI-H226 lung): > 100 µM | TGI (DU-145 prostate): > 100 µM | TGI (MOLT-4 leukemia): > 100 µM | TGI (OVCAR-4 ovarian): > 100 µM | TGI (HL-60(TB) leukemia): > 100 µM | TGI (OVCAR-8 ovarian): > 100 µM | TGI (SK-MEL-5 melanoma): > 100 µM | TGI (RPMI-8226 leukemia): > 100 µM | TGI (COLO 205 colon): > 100 µM | TGI (NCI/ADR-RES ovarian): > 100 µM | TGI (IGROV1 ovarian): > 100 µM | TGI (NCI-H522 lung): > 100 µM | TGI (HS 578T breast): > 100 µM

N/C(CSCCSC/C(N)=N/O)=N\O
TGI (HT29 colon): > 100 µM | TGI (HOP-62 NSCLC): > 100 µM | TGI (HCT-116 colon): > 100 µM | TGI (NCI-H23 lung): > 100 µM | TGI (MDA-MB-435): > 100 µM | TGI (SR leukemia): > 100 µM | TGI (RXF 393 renal): > 100 µM | TGI (CAKI-1 renal): > 100 µM | TGI (SNB-75 CNS): > 100 µM | TGI (SN12C renal): > 100 µM | TGI (T-47D breast): > 100 µM | TGI (UACC-62 melanoma): > 100 µM | TGI (SK-MEL-28 melanoma): > 100 µM | TGI (K-562 leukemia): > 100 µM | TGI (NCI-H460 lung): > 100 µM | TGI (SNB-19 CNS): > 100 µM | TGI (MDA-N): > 100 µM | TGI (ACHN renal): > 100 µM | TGI (OVCAR-5 ovarian): > 100 µM | TGI (HOP-92 NSCLC): > 100 µM | TGI (786-0 renal): > 100 µM | TGI (SK-OV-3 ovarian): > 100 µM | TGI (SF-539 CNS): > 100 µM | TGI (SF-268 CNS): > 100 µM | TGI (MDA-MB-231 breast): > 100 µM | TGI (MALME-3M melanoma): > 100 µM | TGI (A549 NSCLC): > 100 µM | TGI (SW-620 colon): > 100 µM | TGI (KM12 colon): > 100 µM | TGI (BT-549 breast): > 100 µM | TGI (EKVX NSCLC): > 100 µM | TGI (TK-10 renal): > 100 µM | TGI (CCRF-CEM leukemia): > 100 µM | TGI (U251 CNS): > 100 µM | TGI (OVCAR-3 ovarian): > 100 µM | TGI (HCT-15 colon): > 100 µM | TGI (M14 melanoma): > 100 µM | TGI (PC-3 prostate): > 100 µM | TGI (HCC-2998 colon): > 100 µM | TGI (MCF7 breast): > 100 µM | TGI (NCI-H226 lung): > 100 µM | TGI (DU-145 prostate): > 100 µM | TGI (MOLT-4 leukemia): > 100 µM | TGI (OVCAR-4 ovarian): > 100 µM | TGI (HL-60(TB) leukemia): > 100 µM | TGI (SK-MEL-5 melanoma): > 100 µM | TGI (UO-31 renal): > 100 µM | TGI (RPMI-8226 leukemia): > 100 µM | TGI (LOX IMVI melanoma): > 100 µM | TGI (COLO 205 colon): > 100 µM | TGI (NCI/ADR-RES ovarian): > 100 µM | TGI (IGROV1 ovarian): > 100 µM | TGI (NCI-H522 lung): > 100 µM | TGI (HS 578T breast): > 100 µM
